Measurements as given in ChEMBL document CHEMBL4613211, “Aurone: A biologically attractive scaffold as anticancer agent” (Eur J Med Chem, 2019).

Tests used:
Type in all cases: functional
[1] = test system: MDA-MB-435; assay: Growth inhibition of human MDA-MB-435 cells at 10 uM after 48 hrs by sulforhodamine B assay relative to control; settings: MDA-MB-435, 48 h, read-out: GI
[2] = test system: NCI-H23; assay: Growth inhibition of human NCI-H23 cells at 10 uM after 48 hrs by sulforhodamine B assay relative to control; settings: NCI-H23, 48 h, read-out: GI
[3] = test system: 786-0; assay: Growth inhibition of human 786-0 cells at 10 uM after 48 hrs by sulforhodamine B assay relative to control; settings: 786-0, 48 h, read-out: GI
[4] = test system: NCI-H460; assay: Growth inhibition of human NCI-H460 cells at 10 uM after 48 hrs by sulforhodamine B assay relative to control; settings: NCI-H460, 48 h, read-out: GI
[5] = test system: HOP-62; assay: Growth inhibition of human HOP62 cells at 10 uM after 48 hrs by sulforhodamine B assay relative to control; settings: HOP-62, 48 h, read-out: GI
[6] = test system: NCI/ADR-RES; assay: Growth inhibition of human NCI-ADR-RES cells at 10 uM after 48 hrs by sulforhodamine B assay relative to control; settings: read-out: GI
[7] = test system: MCF7; assay: Growth inhibition of human MCF7 cells at 10 uM after 48 hrs by sulforhodamine B assay relative to control; settings: MCF7, 48 h, read-out: GI
[8] = test system: HT-29; assay: Growth inhibition of human HT-29 cells at 10 uM after 48 hrs by sulforhodamine B assay relative to control; settings: HT-29, 48 h, read-out: GI
[9] = test system: UO-31; assay: Growth inhibition of human UO31 cells at 10 uM after 48 hrs by sulforhodamine B assay relative to control; settings: UO-31, 48 h, read-out: GI
[10] = test system: DU-145; assay: Growth inhibition of human DU145 cells at 10 uM after 48 hrs by sulforhodamine B assay relative to control; settings: DU-145, 48 h, read-out: GI
[11] = test system: Malme-3M; assay: Growth inhibition of human MALME-3M cells at 10 uM after 48 hrs by sulforhodamine B assay relative to control; settings: read-out: GI
[12] = test system: ACHN; assay: Growth inhibition of human ACHN cells at 10 uM after 48 hrs by sulforhodamine B assay relative to control; settings: read-out: GI
[13] = test system: A498; assay: Growth inhibition of human A498 cells at 10 uM after 48 hrs by sulforhodamine B assay relative to control; settings: A498, 48 h, read-out: GI
[14] = test system: A549; assay: Growth inhibition of human A549/ATCC cells at 10 uM after 48 hrs by sulforhodamine B assay relative to control; settings: A549, 48 h, read-out: GI
[15] = test system: SN12C; assay: Growth inhibition of human SN12C cells at 10 uM after 48 hrs by sulforhodamine B assay relative to control; settings: read-out: GI
[16] = test system: TK-10; assay: Growth inhibition of human TK10 cells at 10 uM after 48 hrs by sulforhodamine B assay relative to control; settings: TK-10, 48 h, read-out: GI
[17] = test system: HCT-116; assay: Growth inhibition of human HCT116 cells at 10 uM after 48 hrs by sulforhodamine B assay relative to control; settings: HCT-116, 48 h, read-out: GI
[18] = test system: M14; assay: Growth inhibition of human M14 cells at 10 uM after 48 hrs by sulforhodamine B assay relative to control; settings: M14, 48 h, read-out: GI
[19] = test system: HL-60(TB); assay: Growth inhibition of human HL-60(TB) cells at 10 uM after 48 hrs by sulforhodamine B assay relative to control; settings: HL-60, 48 h, read-out: GI
[20] = test system: CAKI-1; assay: Growth inhibition of human CAKI-1 cells at 10 uM after 48 hrs by sulforhodamine B assay relative to control; settings: CAKI-1, 48 h, read-out: GI
[21] = test system: KM12; assay: Growth inhibition of human KM12 cells at 10 uM after 48 hrs by sulforhodamine B assay relative to control; settings: KM12, 48 h, read-out: GI
[22] = test system: Hs-578T; assay: Growth inhibition of human Hs 578T cells at 10 uM after 48 hrs by sulforhodamine B assay relative to control; settings: read-out: GI
[23] = test system: MDA-MB-468; assay: Growth inhibition of human MDA-MB-468 cells at 10 uM after 48 hrs by sulforhodamine B assay relative to control; settings: MDA-MB-468, 48 h, read-out: GI
[24] = test system: PC-3; assay: Growth inhibition of human PC3 cells at 10 uM after 48 hrs by sulforhodamine B assay relative to control; settings: PC-3, 48 h, read-out: GI
[25] = test system: OVCAR-3; assay: Growth inhibition of human OVCAR3 cells at 10 uM after 48 hrs by sulforhodamine B assay relative to control; settings: OVCAR-3, 48 h, read-out: GI
[26] = test system: BT-549; assay: Growth inhibition of human BT549 cells at 10 uM after 48 hrs by sulforhodamine B assay relative to control; settings: BT-549, 48 h, read-out: GI
[27] = test system: IGROV-1; assay: Growth inhibition of human IGROV1 cells at 10 uM after 48 hrs by sulforhodamine B assay relative to control; settings: IGROV-1, 48 h, read-out: GI
[28] = test system: CCRF-CEM; assay: Growth inhibition of human CCRF-CEM cells at 10 uM after 48 hrs by sulforhodamine B assay relative to control; settings: read-out: GI
[29] = test system: U-251; assay: Growth inhibition of human U251 cells at 10 uM after 48 hrs by sulforhodamine B assay relative to control; settings: U-251, 48 h, read-out: GI
[30] = test system: HCT-15; assay: Growth inhibition of human HCT15 cells at 10 uM after 48 hrs by sulforhodamine B assay relative to control; settings: HCT-15, 48 h, read-out: GI
[31] = test system: SF-295; assay: Growth inhibition of human SF295 cells at 10 uM after 48 hrs by sulforhodamine B assay relative to control; settings: SF-295, 48 h, read-out: GI
[32] = test system: SK-MEL-28; assay: Growth inhibition of human SK-MEL-28 cells at 10 uM after 48 hrs by sulforhodamine B assay relative to control; settings: SK-MEL-28, 48 h, read-out: GI
[33] = test system: LOX IMVI; assay: Growth inhibition of human LOXIMVI cells at 10 uM after 48 hrs by sulforhodamine B assay relative to control; settings: read-out: GI
[34] = test system: RXF 393; assay: Growth inhibition of human RXF393 cells at 10 uM after 48 hrs by sulforhodamine B assay relative to control; settings: RXF 393, 48 h, read-out: GI
[35] = test system: NCI-H226; assay: Growth inhibition of human NCI-H226 cells at 10 uM after 48 hrs by sulforhodamine B assay relative to control; settings: NCI-H226, 48 h, read-out: GI
[36] = test system: SK-MEL-2; assay: Growth inhibition of human SK-MEL-2 cells at 10 uM after 48 hrs by sulforhodamine B assay relative to control; settings: SK-MEL-2, 48 h, read-out: GI
[37] = test system: SNB-75; assay: Growth inhibition of human SNB75 cells at 10 uM after 48 hrs by sulforhodamine B assay relative to control; settings: SNB-75, 48 h, read-out: GI

SMILES | inhibition of growth at 10 µM [1] [%] | inhibition of growth at 10 µM [2] [%] | inhibition of growth at 10 µM [3] [%] | inhibition of growth at 10 µM [4] [%] | inhibition of growth at 10 µM [5] [%] | inhibition of growth at 10 µM [6] [%] | inhibition of growth at 10 µM [7] [%] | inhibition of growth at 10 µM [8] [%] | inhibition of growth at 10 µM [9] [%] | inhibition of growth at 10 µM [10] [%] | inhibition of growth at 10 µM [11] [%] | inhibition of growth at 10 µM [12] [%] | inhibition of growth at 10 µM [13] [%] | inhibition of growth at 10 µM [14] [%] | inhibition of growth at 10 µM [15] [%] | inhibition of growth at 10 µM [16] [%] | inhibition of growth at 10 µM [17] [%] | inhibition of growth at 10 µM [18] [%] | inhibition of growth at 10 µM [19] [%] | inhibition of growth at 10 µM [20] [%] | also measured
COc1ccc(/C=C2\Oc3c(c(OC)c4ccoc4c3CN3CCOCC3)C2=O)cc1 | 56.4 to 65.2 | 56.4 to 65.2 | 56.4 to 65.2 | 56.4 to 65.2 | 56.4 to 65.2 | 56.4 to 65.2 | 56.4 to 65.2 | 56.4 to 65.2 | 56.4 to 65.2 | 56.4 to 65.2 | 56.4 to 65.2 | 56.4 to 65.2 | 56.4 to 65.2 | 56.4 to 65.2 | 56.4 to 65.2 | 56.4 to 65.2 | 56.4 to 65.2 | 56.4 to 65.2 | 56.4 to 65.2 | 56.4 to 65.2 | inhibition of growth at 10 µM [21]: 56.4 to 65.2%; inhibition of growth at 10 µM [22]: 56.4 to 65.2%; inhibition of growth at 10 µM [23]: 56.4 to 65.2%; inhibition of growth at 10 µM [24]: 56.4 to 65.2%; inhibition of growth at 10 µM [25]: 56.4 to 65.2%; inhibition of growth at 10 µM [26]: 56.4 to 65.2%; inhibition of growth at 10 µM [27]: 56.4 to 65.2%; inhibition of growth at 10 µM [28]: 56.4 to 65.2%; inhibition of growth at 10 µM [29]: 56.4 to 65.2%; inhibition of growth at 10 µM [30]: 56.4 to 65.2%; inhibition of growth at 10 µM [31]: 56.4 to 65.2%; inhibition of growth at 10 µM [32]: 56.4 to 65.2%; inhibition of growth at 10 µM [33]: 56.4 to 65.2%; inhibition of growth at 10 µM [34]: 56.4 to 65.2%; inhibition of growth at 10 µM [35]: 56.4 to 65.2%; inhibition of growth at 10 µM [36]: 56.4 to 65.2%; inhibition of growth at 10 µM [37]: 56.4 to 65.2%
COc1ccc2c(c1)O/C(=C\c1ccc(OCC(=O)Nc3ccccc3)c(OC)c1)C2=O | 18.9 to 27.1 | 18.9 to 27.1 | 18.9 to 27.1 | 18.9 to 27.1 | 18.9 to 27.1 | 18.9 to 27.1 | 18.9 to 27.1 | 18.9 to 27.1 | 18.9 to 27.1 | 18.9 to 27.1 | 18.9 to 27.1 | 18.9 to 27.1 | 18.9 to 27.1 | 18.9 to 27.1 | 18.9 to 27.1 | 18.9 to 27.1 | 18.9 to 27.1 | 18.9 to 27.1 | 18.9 to 27.1 | 18.9 to 27.1 | inhibition of growth at 10 µM [21]: 18.9 to 27.1%; inhibition of growth at 10 µM [22]: 18.9 to 27.1%; inhibition of growth at 10 µM [23]: 18.9 to 27.1%; inhibition of growth at 10 µM [24]: 18.9 to 27.1%; inhibition of growth at 10 µM [25]: 18.9 to 27.1%; inhibition of growth at 10 µM [26]: 18.9 to 27.1%; inhibition of growth at 10 µM [27]: 18.9 to 27.1%; inhibition of growth at 10 µM [28]: 18.9 to 27.1%; inhibition of growth at 10 µM [29]: 18.9 to 27.1%; inhibition of growth at 10 µM [30]: 18.9 to 27.1%; inhibition of growth at 10 µM [31]: 18.9 to 27.1%; inhibition of growth at 10 µM [32]: 18.9 to 27.1%; inhibition of growth at 10 µM [33]: 18.9 to 27.1%; inhibition of growth at 10 µM [34]: 18.9 to 27.1%; inhibition of growth at 10 µM [35]: 18.9 to 27.1%; inhibition of growth at 10 µM [36]: 18.9 to 27.1%; inhibition of growth at 10 µM [37]: 18.9 to 27.1%
COc1cc(/C=C2\Oc3cc4occc4c(OC)c3C2=O)ccc1OCC(=O)Nc1ccccc1 | 67.1 to 79.6 | 67.1 to 79.6 | 67.1 to 79.6 | 67.1 to 79.6 | 67.1 to 79.6 | 67.1 to 79.6 | 67.1 to 79.6 | 67.1 to 79.6 | 67.1 to 79.6 | 67.1 to 79.6 | 67.1 to 79.6 | 67.1 to 79.6 | 67.1 to 79.6 | 67.1 to 79.6 | 67.1 to 79.6 | 67.1 to 79.6 | 67.1 to 79.6 | 67.1 to 79.6 | 67.1 to 79.6 | 67.1 to 79.6 | inhibition of growth at 10 µM [21]: 67.1 to 79.6%; inhibition of growth at 10 µM [22]: 67.1 to 79.6%; inhibition of growth at 10 µM [23]: 67.1 to 79.6%; inhibition of growth at 10 µM [24]: 67.1 to 79.6%; inhibition of growth at 10 µM [25]: 67.1 to 79.6%; inhibition of growth at 10 µM [26]: 67.1 to 79.6%; inhibition of growth at 10 µM [27]: 67.1 to 79.6%; inhibition of growth at 10 µM [28]: 67.1 to 79.6%; inhibition of growth at 10 µM [29]: 67.1 to 79.6%; inhibition of growth at 10 µM [30]: 67.1 to 79.6%; inhibition of growth at 10 µM [31]: 67.1 to 79.6%; inhibition of growth at 10 µM [32]: 67.1 to 79.6%; inhibition of growth at 10 µM [33]: 67.1 to 79.6%; inhibition of growth at 10 µM [34]: 67.1 to 79.6%; inhibition of growth at 10 µM [35]: 67.1 to 79.6%; inhibition of growth at 10 µM [36]: 67.1 to 79.6%; inhibition of growth at 10 µM [37]: 67.1 to 79.6%
